Measurements published in patent publication EP2022796A1, “Amorphous ciclesonide” (Nycomed GmbH, priority 2007, dated 2009).
Converted amounts (≈) assume the structure as drawn.

Experiments:
Format in all cases: physicochemical
[1] = Stability under elevated pressure (recrystallization); conditions: pressure of up to 2.500 for 5 min
Excerpt: Such a stability against pressure is particularly desirable when a pharmaceutical agent is used for preparation of solid pharmaceutical compositions such as tablets or granules.

[2] = Saturation solubility experiments in water; conditions: 37°C, 30 min ultrasonic treatment then stirred 24 hours; for saturation solubility: 1440 min
Method: Defined amounts of in each case about 14 to 25 mg of X-ray amorphous or crystalline ciclesonide were weighed into a conical Erlenmeyer flask equipped with a rubber stopper (n = 3). 100 ml of water (Millipore quality, ELIX 3, Gradient A 10, pH 5.92 - 6.00) were added and 30 minutes of ultrasonic treatment was applied to the samples. Afterwards the samples were stirred in the dark for 24 hours at 37°C in a water bath. After the desired stirring time, each sample was filtered through a 0.2 µm membrane filter (Schleicher & Schuell, RC 0.2 µm Spartan 30/A) and concentrated on a Sep-Pak cartridge (Waters Sep-Pak cartridge C18, WAT051910). Then the cartridge was eluted with ethanol (gradient grade, Merck). The ciclesonide in the ethanol solution was then quantified by HPLC (LaChrom®-HPLC System Series 7000, column: Zorbax SB phenyl, eluent: water/ethanol 38 % : 62 % (v/v) isocratic, column temperature: 60°C, injection volume: 50 µL, UV-detection at 243 nm) against an external standard.

[3] = Dissolution experiments in water (dissolution kinetics); conditions: 37°C
Method: For each timepoint (5 min, 10 min, 20 min, 35 min, 60 min and 1440 min) of the dissolution experiment, three samples each of X-ray amorphous and crystalline ciclesonide were prepared by weighing a defined amount of in each case about 15 mg into a 250 ml conical wide-necked Erlenmeyer flask and stirring (850 rpm, glass coated magnetic stir bar, having a length of 2.4 cm and a diameter of 0.59 cm) the samples at 37°C in 100 ml water (Millipore quality, ELIX 3, Gradient A 10, pH 5.92 - 6.00). The moment of the addition of water was defined as to. The tempering of the samples was performed using an air bath. After the desired stirring time, the complete samples were filtered through a 0.2 µm membrane filter (Schleicher & Schuell, RC 0.2 µm Spartan 30/A) and concentrated on a Sep-Pak cartridge (Waters Sep-Pak cartridge C18, WAT051910). The cartridge was then eluted with ethanol (gradient grade, Merck). The ciclesonide in the ethanol solution was then quantified by HPLC (LaChrom®-HPLC System Series 7000, column: Zorbax SB phenyl, eluent: water/ethanol 38 % : 62 % (v/v) isocratic, column temperature: 60°C, injection volume: 50 µL, UV-detection at 243 nm) against an external standard.

[4] = Hygroscopicity
[5] = listed as crystalline form of ciclesonide

saturation solubility [2] | concentration of dissolved ingredient within 5 minutes ([3]; 5 minutes) | concentration of dissolved ingredient after 20 minutes ([3]; 20 minutes) | concentration of dissolved ingredient relative to crystalline ciclesonide after 1 hour ([3]; after 1 hour, amorphous versus crystalline) | concentration of dissolved ciclesonide after 24 hours [3] | hygroscopicity [4] | solubility at 24 h [2] | saturation solubility [2, 5] | solubility at 1 h ([3]; after 1 hour) | concentration of dissolved ciclesonide after 24 hours [3, 5] | SMILES | stability under pressure (signs of recrystallization) [1]
0.0916 ± 0.0052 µg/mL | 290 ng/mL | 340 ng/mL | about sevenfold higher | 105 ng/mL | not hygroscopic | – | – | – | – | CC(C)C(=O)OCC(=O)C12OC(C3CCCCC3)OC1CC1C3CCC4=CC(=O)C=CC4(C)C3C(O)CC12C (stereo not drawn) [amorphous ciclesonide, 16,17-[(Cyclohexyl-methylene)bis(oxy)]-11-hydroxy-21-(2-methyl-1-oxopropoxy)-pregna-1,4-diene-3,20-dione[11β,16α]] | did not show any signs of recrystallization
0.0901 ± 0.0022 µg/mL | – | – | – | 64 ng/mL | – | 0.091 µg/mL (≈ 0.168 µM) | about 91 µg/l | ~0.05 µg/mL (≈ 0.0925 µM) | about 64 µg/l | CC(C)C(=O)OCC(=O)C12OC(C3CCCCC3)OC1CC1C3CCC4=CC(=O)C=CC4(C)C3C(O)CC12C (stereo not drawn) [crystalline ciclesonide, 16,17-[(Cyclohexyl-methylene)bis(oxy)]-11-hydroxy-21-(2-methyl-1-oxopropoxy)-pregna-1,4-diene-3,20-dione[11β,16α], reference compound] | –
